Data from patent publication US6274715A, “Tricyclic erythromycin derivatives” (priority 1997, dated 2001).
Converted amounts (≈) assume the structure as drawn.

Columns and labels:
Assay type in all cases: cell-based
[1] = test system: MYCOBACTERIUM SMEGMATIS ATCC 114; assay: In vitro antibacterial activity, MIC, BHI agar dilution; conditions: M. smegmatis ATCC 114, unit assumed
ESCHERICHIA COLI DC-2 = assay: as above; conditions: E. coli DC-2, unit assumed
PSEUDOMONAS CEPACIA 296I = assay: as above; conditions: P. cepacia 296I, unit assumed
[2] = test system: STAPHYLOCOCCUS AUREUS CMX 553; assay: as above; conditions: S. aureus CMX 553, unit assumed
ESCHERICHIA COLI SS = assay: as above; conditions: E. coli SS, unit assumed
[3] = test system: PSEUDOMONAS AERUGINOSA BMH10; assay: as above; conditions: P. aeruginosa BMH10, unit assumed
[4] = test system: STAPHYLOCOCCUS AUREUS A-5278; assay: as above; conditions: S. aureus A-5278, unit assumed
[5] = test system: STAPHYLOCOCCUS AUREUS ATCC 6538P; assay: as above; conditions: S. aureus ATCC 6538P, 35-37° C., 20 to 24 hours, unit assumed
[6] = test system: PSEUDOMONAS AERUGINOSA 5007; assay: as above; conditions: P. aeruginosa 5007, unit assumed
[7] = test system: STREPTOCOCCUS PYOGENES 930; assay: as above; conditions: S. pyogenes 930, unit assumed
ESCHERICHIA COLI KNK 437 = conditions: E. coli KNK 437; BHI agar; unit assumed
[8] = test system: ENTEROBACTER AEROGENES ATCC 13048; assay: In vitro antibacterial activity, MIC, BHI agar dilution; conditions: E. aerogenes ATCC 13048, unit assumed
[9] = test system: STAPHYLOCOCCUS AUREUS A5177; assay: as above; conditions: S. aureus A5177, unit assumed
ESCHERICHIA COLI JUHL = conditions: E. coli JUHL; BHI agar; unit assumed
[10] = test system: STREPTOCOCCUS PYOGENES PIU 2548; assay: In vitro antibacterial activity, MIC, BHI agar dilution; conditions: S. pyogenes PIU 2548, unit assumed
[11] = test system: PSEUDOMONAS AERUGINOSA K799/WT; assay: as above; conditions: P. aeruginosa K799/WT, unit assumed
ESCHERICHIA COLI H560 = assay: as above; conditions: E. coli H560, unit assumed
[12] = test system: STAPHYLOCOCCUS AUREUS 1775; assay: as above; conditions: S. aureus 1775, unit assumed
[13] = test system: PSEUDOMONAS AERUGINOSA DPHD-5263; assay: as above; conditions: P. aeruginosa DPHD-5263, unit assumed
[14] = test system: STAPHYLOCOCCUS AUREUS NCTC10649M; assay: as above; conditions: S. aureus NCTC10649M, unit assumed
CANDIDA ALBICANS CCH 442 = assay: as above; conditions: C. albicans CCH 442, unit assumed
[15] = test system: PSEUDOMONAS AERUGINOSA K799/61; assay: as above; conditions: P. aeruginosa K799/61, unit assumed
[16] = test system: PROVIDENCIA STUARTII CMX 640; conditions: P. stuartii CMX 640; BHI agar; unit assumed
[17] = test system: STREPTOCOCCUS PYOGENES EES61; assay: In vitro antibacterial activity, MIC, BHI agar dilution; conditions: S. pyogenes EES61, unit assumed
[18] = test system: STAPHYLOCOCCUS EPIDERMIDIS 3519; conditions: S. epidermidis 3519; BHI agar; unit assumed
[19] = test system: PSEUDOMONAS AERUGINOSA DPHD-2862; assay: In vitro antibacterial activity, MIC, BHI agar dilution; conditions: P. aeruginosa DPHD-2862, unit assumed
[20] = test system: STAPHYLOCOCCUS AUREUS CMX 642A; assay: as above; conditions: S. aureus CMX 642A, unit assumed
EN[…] ATCC 8043 = assay: as above; conditions: E. faecium ATCC 8043, unit assumed
In short: (§1)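 BHI agar dilution: twelve plates with successive compound dilutions, inoculated by replicator with 1:100 culture dilutions (1:10 for slow growers such as Micrococcus and Streptococcus), 20 to 24 hours at 35-37° C. MIC was the lowest concentration giving no growth, slight haze or sparse isolated colonies versus drug-free control; erythromycin A as class reference.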

M[…] ATCC 9341 = assay: as above; conditions: M. luteus ATCC 9341, unit assumed
In short: as §1

M[…] ATCC 4698 = assay: as above; conditions: M. luteus ATCC 4698, unit assumed
In short: as §1

STR[…] 508 = assay: as above; conditions: S. agalactiae CMX 508, unit assumed
In short: as §1

[21] = test system: ACINETOBACTER CALCOACETICUS CMX 669; assay: as above; conditions: A. calcoaceticus CMX 669, unit assumed
[22] = test system: KLEBSIELLA PNEUMONIAE ATCC 8045; assay: as above; conditions: K. pneumoniae ATCC 8045, unit assumed
[23] = test system: STREPTOCOCCUS BOVIS A-5169; assay: as above; conditions: S. bovis A-5169, unit assumed

SMILES | MIC [1] | MIC (ESCHERICHIA COLI DC-2) | MIC (PSEUDOMONAS CEPACIA 296I) | MIC [2] | MIC (ESCHERICHIA COLI SS) | MIC [3] | MIC [4] | MIC [6] | MIC [7] | MIC (ESCHERICHIA COLI KNK 437) | MIC [8] | MIC [9] | MIC (ESCHERICHIA COLI JUHL) | MIC [10] | MIC [11] | MIC (ESCHERICHIA COLI H560) | MIC [12] | MIC [13] | MIC (CANDIDA ALBICANS CCH 442) | MIC [15] | other results
CC[C@H]1OC(=O)[C@H](C)C(=O)[C@H](C)[C@@H](O[C@@H]2O[C@H](C)C[C@H](N(C)C)[C@H]2O)[C@](C)(OC)C[C@@H](C)C2=N[C@@H]3CCCC[C@@H]3N3C(=O)O[C@@]1(C)[C@H]3[C@H]2C [Example 13] | 0.39 µg/mL (≈ 0.564 µM) | 100 µg/mL (≈ 145 µM) | > 100 µg/mL | 0.78 µg/mL (≈ 1.13 µM) | 0.39 µg/mL (≈ 0.564 µM) | > 100 µg/mL | > 100 µg/mL | > 100 µg/mL | > 100 µg/mL | 100 µg/mL (≈ 145 µM) | 100 µg/mL (≈ 145 µM) | 0.78 µg/mL (≈ 1.13 µM) | 50 µg/mL (≈ 72.3 µM) | 0.2 µg/mL (≈ 0.289 µM) | > 100 µg/mL | 50 µg/mL (≈ 72.3 µM) | > 100 µg/mL | > 100 µg/mL | 3.1 µg/mL (≈ 4.48 µM) | 3.1 µg/mL (≈ 4.48 µM) | MIC [5]: 0.78 µg/mL (≈ 1.13 µM); MIC [14]: 0.78 µg/mL (≈ 1.13 µM); MIC [16]: > 100 µg/mL; MIC [17]: 0.02 µg/mL (≈ 0.0289 µM); MIC [18]: 0.78 µg/mL (≈ 1.13 µM); MIC [19]: > 100 µg/mL; MIC [20]: 0.78 µg/mL (≈ 1.13 µM); MIC (EN[…] ATCC 8043): 0.1 µg/mL (≈ 0.145 µM); MIC (M[…] ATCC 9341): 0.2 µg/mL (≈ 0.289 µM); MIC (M[…] ATCC 4698): 0.78 µg/mL (≈ 1.13 µM); MIC (STR[…] 508): 0.02 µg/mL (≈ 0.0289 µM); MIC [21]: > 100 µg/mL; MIC [22]: 100 µg/mL (≈ 145 µM)
CC[C@H]1OC(=O)[C@H](C)C(=O)[C@H](C)[C@@H](O[C@@H]2O[C@H](C)C[C@H](N(C)C)[C@H]2O)[C@](C)(OC)C[C@@H](C)C2=N[C@@H]3CN(C(=O)OCc4ccccc4)C[C@@H]3N3C(=O)O[C@@]1(C)[C@H]3[C@H]2C [Example 20] | 3.1 µg/mL (≈ 3.81 µM) | > 100 µg/mL | > 100 µg/mL | 1.56 µg/mL (≈ 1.92 µM) | 3.1 µg/mL (≈ 3.81 µM) | > 100 µg/mL | > 100 µg/mL | > 100 µg/mL | > 100 µg/mL | > 100 µg/mL | > 100 µg/mL | 0.78 µg/mL (≈ 0.959 µM) | > 100 µg/mL | 0.78 µg/mL (≈ 0.959 µM) | > 100 µg/mL | 100 µg/mL (≈ 123 µM) | > 100 µg/mL | > 100 µg/mL | > 100 µg/mL | 6.2 µg/mL (≈ 7.63 µM) | MIC [16]: > 100 µg/mL; MIC [17]: 0.005 µg/mL (≈ 0.00615 µM); MIC [18]: 0.78 µg/mL (≈ 0.959 µM); MIC [19]: > 100 µg/mL; MIC [20]: 1.56 µg/mL (≈ 1.92 µM); MIC (EN[…] ATCC 8043): 0.39 µg/mL (≈ 0.48 µM); MIC (M[…] ATCC 9341): 0.39 µg/mL (≈ 0.48 µM); MIC (M[…] ATCC 4698): 0.78 µg/mL (≈ 0.959 µM); MIC (STR[…] 508): 0.1 µg/mL (≈ 0.123 µM); MIC [21]: 100 µg/mL (≈ 123 µM); MIC [23]: 0.1 µg/mL (≈ 0.123 µM); MIC [22]: > 100 µg/mL
